According to patent US20210024542A1 (Torcept Therapeutics, Inc., priority 2018, published 2021):

Tests used:
SK-MEL-28 = assay: OncoPanel cell proliferation assay, SK-MEL-28; type: cell-based, human; settings: for Cell Count Activity Area: SK-MEL-28, scale 0-10
Protocol: (§1) Cells were grown in RPMI 1640, 10% FBS, 2 mM L-alanyl-L-glutamine, 1 mM Na pyruvate, or a special medium. Cells were seeded into 384-well plates and incubated in a humidified atmosphere of 5% CO2 at 37° C. Compounds were added the day following cell seeding. At the same time, a time zero untreated cell plate was generated. After a 3-day incubation period, cells were fixed and stained to allow fluorescence imaging of nuclei. Compounds (1 mM stock solutions) were serially diluted in half-log steps from the highest test concentration ([…]), and assayed over 10 concentrations with a maximum assay concentration of 0.1% DMSO. Automated fluorescence microscopy was carried out using a Molecular Devices ImageXpress Micro XL high-content imager, and images were collected with a 4× objective. 16-bit TIFF images were acquired and analyzed with MetaXpress 5.1.0.41 software.
(§2) Cell proliferation was measured by the fluorescence intensity of an incorporated nuclear dye. The output is referred to as the relative cell count, where the measured nuclear intensity is transformed to percent of control (POC) using the following formula: […]
(§3) Cellular response parameters were calculated using nonlinear regression to a sigmoidal single-site dose response model:
(§4) Where y is a response measured at concentration x, A and B are the lower and upper limits of the response, C is the concentration at the response midpoint (EC50), and D is the Hill Slope (Ref. 1).
(§5) EC50 is the test compound concentration at the curve inflection point or half the effective response (parameter C of the fitted curve solution). GI50 is the concentration needed to reduce the observed growth by half (midway between the curve maximum and the time zero value). “Cell Count Activity Area” is an estimate of the integrated area above the curve (Barretina, et al. The Cancer Cell Line Encyclopedia enables predictive modelling of anticancer drug sensitivity. Nature 483: 603-607). […] In rare instances, values <0 or >10 may be observed. […] Curve-fitting, calculations, and report generation was performed using a custom data reduction engine and MathIQ based software (AIM).

SK-NEP-1 = assay: OncoPanel cell proliferation assay, SK-NEP-1; settings: SK-NEP-1, scale 0-10
Protocol: (§6) Cells were seeded into 384-well plates and incubated in a humidified atmosphere of 5% CO2 at 37° C. Compounds were added the day following cell seeding. At the same time, a time zero untreated cell plate was generated. After a 3-day incubation period, cells were fixed and stained to allow fluorescence imaging of nuclei. Compounds (1 mM stock solutions) were serially diluted in half-log steps from the highest test concentration (1 micromol), and assayed over 10 concentrations with a maximum assay concentration of 0.1% DMSO. Automated fluorescence microscopy was carried out using a Molecular Devices ImageXpress Micro XL high-content imager, and images were collected with a 4× objective. 16-bit TIFF images were acquired and analyzed with MetaXpress 5.1.0.41 software.

RL95-2 = assay: OncoPanel cell proliferation assay, RL95-2; type: cell-based, human; settings: for Cell Count Activity Area: RL95-2, scale 0-10
Protocol: as §1, §2, §3, §4, §5

MES-SA = assay: OncoPanel cell proliferation assay, MES-SA; type: cell-based, human; settings: for Cell Count Activity Area: scale 0-10
Protocol: as §1, §2, §3, §4, §5

PC-3 = assay: OncoPanel cell proliferation assay, PC-3; settings: for Cell Count Activity Area: PC-3, scale 0-10
Protocol: as §6

CML-T1 = assay: OncoPanel cell proliferation assay, CML-T1; type: cell-based, human; settings: CML-T1, scale 0-10
Protocol: as §1, §2, §3, §4, §5

SW579 = assay: OncoPanel cell proliferation assay, SW579; type: cell-based, human; settings: for Cell Count Activity Area: SW579, scale 0-10
Protocol: as §1, §2, §3, §4, §5

CHP-212 = assay: OncoPanel cell proliferation assay, CHP-212; settings: for Cell Count Activity Area: CHP-212, scale 0-10
Protocol: as §6

A388 = assay: OncoPanel cell proliferation assay, A388; type: cell-based, human
Protocol: as §1, with “Cells” for “Cells were grown in RPMI 1640, 10% FBS, 2 mM L-alanyl-L-glutamine, 1 mM Na pyruvate, or a special medium. Cells”
as §2, §3, §4
GI50 is the concentration needed to reduce the observed growth by half (midway between the curve maximum and the time zero value). […] In rare instances, values <0 or >10 may be observed. […] Curve-fitting, calculations, and report generation was performed using a custom data reduction engine and MathIQ based software (AIM).

786-O = assay: OncoPanel cell proliferation assay, 786-O; type: cell-based, human; settings: 786-O, scale 0-10
Protocol: as §1, §2, §3, §4, §5

SHP-77 = assay: OncoPanel cell proliferation assay, SHP-77; settings: for Cell Count Activity Area: SHP-77, scale 0-10
Protocol: as §6

TF-1 = assay: OncoPanel cell proliferation assay, TF-1; type: cell-based, human; settings: for Cell Count Activity Area: TF-1, scale 0-10
Protocol: as §1, §2, §3, §4, §5

SMILES | Cell Count Activity Area (SK-MEL-28) | Cell Count Activity Area (SK-NEP-1) | Cell Count Activity Area (RL95-2) | Cell Count Activity Area (MES-SA) | Cell Count Activity Area (PC-3) | Cell Count Activity Area (CML-T1) | Cell Count Activity Area (SW579) | Cell Count Activity Area (CHP-212) | Cell Count Activity Area (786-O) | Cell Count Activity Area (SHP-77) | Cell Count Activity Area (TF-1) | also measured
CO[C@H]1C[C@@H]2CC[C@@H](C)[C@@](O)(O2)C(=O)C(=O)N2CCCC[C@H]2C(=O)O[C@H]([C@H](C)C[C@@H]2CC[C@@H](O)[C@H](OC)C2)CC(=O)[C@H](C)/C=C(\C)[C@@H](O)[C@@H](OC)C(=O)[C@H](C)C[C@H](C)/C=C/C=C/C=C/1C [Rapamycin, reference compound] | 2.50 | 4.22 | 4.24 | 5.39 | 3.57 | 4.56 | 4.77 | 4.13 | 4.17 | 1.13 | 1.52 | IC50 (SK-MEL-28; Homo sapiens, 72 h, SK-MEL-28, 3-day incubation, read-out: Cell Count IC50): > 1000 nM; GI50 (RL95-2; Homo sapiens, 72 h, RL95-2, 3-day incubation, read-out: Cell Count GI50): 0.13 nM; IC50 (RL95-2; Homo sapiens, 72 h, RL95-2, 3-day incubation, read-out: Cell Count IC50): > 1000 nM; EC50 (PC-3; Homo sapiens, PC-3, 72 h, read-out: Cell Count EC50): 0.23 nM; IC50 (PC-3; Homo sapiens, PC-3, 72 h, read-out: Cell Count IC50): > 1000 nM; IC50 (SW579; Homo sapiens, 72 h, SW579, 3-day incubation, read-out: Cell Count IC50): > 1000 nM; IC50 (CHP-212; Homo sapiens, CHP-212, 72 h, read-out: Cell Count IC50): > 1000 nM; EC50 (A388; Homo sapiens, 72 h, A388, 3-day incubation, read-out: Cell Count EC50): > 1000 nM; GI50 (A388; Homo sapiens, 72 h, A388, 3-day incubation, read-out: Cell Count GI50): > 1000 nM; IC50 (A388; Homo sapiens, 72 h, A388, 3-day incubation, read-out: Cell Count IC50): > 1000 nM; EC50 (SHP-77; Homo sapiens, SHP77, 72 h, read-out: Cell Count EC50): > 1000 nM; GI50 (SHP-77; Homo sapiens, SHP77, 72 h, read-out: Cell Count GI50): > 1000 nM; IC50 (SHP-77; Homo sapiens, SHP77, 72 h, read-out: Cell Count IC50): > 1000 nM; EC50 (TF-1; Homo sapiens, 72 h, TF-1, 3-day incubation, read-out: Cell Count EC50): > 1000 nM; GI50 (TF-1; Homo sapiens, 72 h, TF-1, 3-day incubation, read-out: Cell Count GI50): > 1000 nM; IC50 (TF-1; Homo sapiens, 72 h, TF-1, 3-day incubation, read-out: Cell Count IC50): > 1000 nM
CN[C@@H]1C[C@H]2O[C@@](C)([C@@H]1OC)n1c3ccccc3c3c4c(c5c6ccccc6n2c5c31)C(=O)NC4 [Staurosporine, reference compound] | 2.81 | 2.78 | 3.87 | 2.80 | 4.67 | 4.13 | 6.09 | 4.80 | 4.87 | 3.16 | 3.31 | GI50 (MES-SA; Homo sapiens, 72 h, 3-day incubation, read-out: Cell Count GI50): 13 nM; EC50 (SW579; Homo sapiens, 72 h, SW579, 3-day incubation, read-out: Cell Count EC50): 0.52 nM; Cell Count Activity Area (A388; A388, scale 0-10): 4.99
